Test results as given in PubChem BioAssay (NCI).
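These data come from cells grown in 96-well plates and exposed to compound for 48 hours at five concentrations. TGI: total growth inhibition.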

Legend:
Test in all cases: NCI anticancer screen, dose series, 48 h
[1] = tested on: MOLT-4 leukemia
[2] = tested on: UACC-62 melanoma
[3] = tested on: A549 NSCLC
[4] = tested on: HS 578T breast
[5] = tested on: K-562 leukemia
[6] = tested on: PC-3 prostate
[7] = tested on: OVCAR-5 ovarian
[8] = tested on: OVCAR-4 ovarian
[9] = tested on: HOP-92 NSCLC
[10] = tested on: NCI-H226 lung

Row | Structure (SMILES) | TGI [1] [µM] | TGI [2] [µM] | TGI [3] [µM] | TGI [4] [µM] | TGI [5] [µM] | TGI [6] [µM] | TGI [7] [µM] | TGI [8] [µM] | TGI [9] [µM] | TGI [10] [µM]
1 | CCN1CCC(O)(c2ccc(Oc3ccc(C)cc3)cc2)C(C(=O)c2ccc(Oc3ccc(C)cc3)cc2)C1 (stereo not given) | 69.1 | 24.5 | 26.8 | 48.3 | > 100 | 24.5 | 32.1 | 17.3 | 21.7 | 27.9
2 | O=[N+]([O-])c1c2nc3n(c2cc2c1nc1n2CCC1)CCC3 | > 100 | > 100 | > 100 | > 100 | > 100 | > 100 | > 100 | > 100 | > 100 | > 100
3 | O=C1c2ccccc2-c2nc(/C=C/c3ccccc3)cc3c2c1nc1ccccc13 | > 100 | 25.7 | > 100 | 62.6 | 32.2 | > 100 | > 100 | > 100 | > 100 | > 100
4 | COc1ccc2cc(C(=O)NCCCNC(=O)c3ccc4cc(OC)ccc4c3)ccc2c1 | > 100 | > 100 | > 100 | > 100 | > 100 | > 100 | > 100 | > 100 | 45.2 | > 100
